Test results as given in PubChem BioAssay (NCI).
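Tested at 5 concentrations; 48 h exposure; 96-well plates; endpoints linearly interpolated, else capped at highest concentration. TGI: total growth inhibition.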

Columns and labels:
Assay in all cases: NCI tumour cell line growth inhibition, 48 h
[1] = test system: A498 renal
[2] = test system: A549 NSCLC
[3] = test system: CCRF-CEM leukemia
[4] = test system: COLO 205 colon
[5] = test system: DLD-1 colon
[6] = test system: DMS 114 small cell lung
[7] = test system: DMS 273 small cell lung
[8] = test system: EKVX NSCLC
[9] = test system: HCC-2998 colon
[10] = test system: HCT-116 colon
[11] = test system: HCT-15 colon
[12] = test system: HL-60(TB) leukemia
[13] = test system: HOP-18 NSCLC
[14] = test system: HOP-62 NSCLC
[15] = test system: HOP-92 NSCLC
[16] = test system: HT29 colon
[17] = test system: IGROV1 ovarian
[18] = test system: K-562 leukemia
[19] = test system: KM12 colon
[20] = test system: LOX IMVI melanoma
[21] = test system: M19-MEL melanoma
[22] = test system: MALME-3M melanoma
[23] = test system: MCF7 breast
[24] = test system: MOLT-4 leukemia
[25] = test system: NCI-H226 lung
[26] = test system: NCI-H23 lung
[27] = test system: NCI-H460 lung
[28] = test system: NCI-H522 lung
[29] = test system: NCI/ADR-RES ovarian
[30] = test system: OVCAR-3 ovarian
[31] = test system: OVCAR-4 ovarian
[32] = test system: OVCAR-5 ovarian
[33] = test system: OVCAR-8 ovarian
[34] = test system: P388 leukemia
[35] = test system: P388/ADR leukemia
[36] = test system: RXF 393 renal
[37] = test system: SF-268 CNS
[38] = test system: SF-295 CNS
[39] = test system: SF-539 CNS
[40] = test system: SK-MEL-2 melanoma
[41] = test system: SK-MEL-28 melanoma
[42] = test system: SK-MEL-5 melanoma
[43] = test system: SK-OV-3 ovarian
[44] = test system: SN12C renal
[45] = test system: SN12K1 renal
[46] = test system: SNB-75 CNS
[47] = test system: SNB-78 CNS
[48] = test system: SW-620 colon
[49] = test system: U251 CNS
[50] = test system: UACC-257 melanoma
[51] = test system: UACC-62 melanoma
[52] = test system: UO-31 renal
[53] = test system: XF 498 CNS
[54] = test system: 786-0 renal
[55] = test system: ACHN renal
[56] = test system: BT-549 breast
[57] = test system: CAKI-1 renal
[58] = test system: DU-145 prostate
[59] = test system: HS 578T breast
[60] = test system: KM20L2 colon
[61] = test system: M14 melanoma
[62] = test system: MDA-MB-231 breast
[63] = test system: MDA-MB-435
[64] = test system: MDA-N
[65] = test system: PC-3 prostate
[66] = test system: RPMI-8226 leukemia
[67] = test system: SNB-19 CNS
[68] = test system: SR leukemia
[69] = test system: T-47D breast
[70] = test system: TK-10 renal

Q: With `O=[N+]([O-])c1ccc(/C=C/c2ccc(N=Nc3ccc(/C=C/c4ccc([N+](=O)[O-])cc4S(=O)(=O)O)c(S(=O)(=O)O)c3)cc2S(=O)(=O)O)c(S(=O)(=O)O)c1` as the compound, how does the TGI [1] read?
A: > 100 µM

Q: What about the TGI [2] of the same compound?
A: > 100 µM

Q: And the TGI [3]?
A: > 100 µM

Q: And the TGI [4]?
A: > 100 µM

Q: What about the TGI [5] of the same compound?
A: > 100 µM

Q: What about the TGI [6] of the same compound?
A: > 100 µM

Q: What about the TGI [7] of the same compound?
A: > 100 µM

Q: What about the TGI [8] of the same compound?
A: > 100 µM

Q: What about the TGI [9] of the same compound?
A: > 100 µM

Q: What about the TGI [10] of the same compound?
A: > 100 µM

Q: And the TGI [11]?
A: > 100 µM

Q: And the TGI [12]?
A: > 100 µM

Q: What about the TGI [13] of the same compound?
A: > 100 µM

Q: And the TGI [14]?
A: > 100 µM

Q: What about the TGI [15] of the same compound?
A: > 94.3 µM

Q: What about the TGI [16] of the same compound?
A: > 100 µM

Q: And the TGI [17]?
A: > 100 µM

Q: What about the TGI [18] of the same compound?
A: > 100 µM

Q: And the TGI [19]?
A: > 100 µM

Q: What about the TGI [20] of the same compound?
A: > 100 µM

Q: And the TGI [21]?
A: > 100 µM

Q: What about the TGI [22] of the same compound?
A: > 100 µM

Q: What about the TGI [23] of the same compound?
A: > 100 µM

Q: And the TGI [24]?
A: > 100 µM

Q: And the TGI [25]?
A: > 100 µM

Q: What about the TGI [26] of the same compound?
A: > 100 µM

Q: And the TGI [27]?
A: > 100 µM

Q: What about the TGI [28] of the same compound?
A: > 100 µM

Q: What about the TGI [29] of the same compound?
A: > 100 µM

Q: And the TGI [30]?
A: > 100 µM

Q: What about the TGI [31] of the same compound?
A: > 100 µM

Q: And the TGI [32]?
A: > 100 µM

Q: And the TGI [33]?
A: > 100 µM

Q: And the TGI [34]?
A: > 100 µM

Q: What about the TGI [35] of the same compound?
A: > 100 µM

Q: And the TGI [36]?
A: > 100 µM

Q: And the TGI [37]?
A: > 100 µM

Q: And the TGI [38]?
A: > 100 µM

Q: And the TGI [39]?
A: > 100 µM

Q: What about the TGI [40] of the same compound?
A: > 100 µM

Q: What about the TGI [41] of the same compound?
A: > 100 µM

Q: And the TGI [42]?
A: > 100 µM

Q: And the TGI [43]?
A: > 100 µM

Q: And the TGI [44]?
A: > 100 µM

Q: What about the TGI [45] of the same compound?
A: > 100 µM

Q: What about the TGI [46] of the same compound?
A: > 100 µM

Q: And the TGI [47]?
A: > 100 µM

Q: What about the TGI [48] of the same compound?
A: > 100 µM

Q: And the TGI [49]?
A: > 100 µM

Q: And the TGI [50]?
A: > 100 µM

Q: What about the TGI [51] of the same compound?
A: > 100 µM

Q: And the TGI [52]?
A: > 100 µM

Q: What about the TGI [53] of the same compound?
A: > 100 µM

Q: For `NC(=O)c1[nH]nc(C2OC(CO)C(O)C2O)c1O` (stereo not drawn), which TGI [54] is on record?
A: > 2870 µM

Q: What about the TGI [1] of the same compound?
A: 444 µM

Q: What about the TGI [2] of the same compound?
A: 289 µM

Q: What about the TGI [55] of the same compound?
A: 1730 µM

Q: What about the TGI [56] of the same compound?
A: 1160 µM

Q: And the TGI [57]?
A: 158 µM

Q: And the TGI [3]?
A: 2360 µM

Q: What about the TGI [4] of the same compound?
A: 1660 µM

Q: What about the TGI [5] of the same compound?
A: 447 µM

Q: What about the TGI [6] of the same compound?
A: 858 µM

Q: What about the TGI [7] of the same compound?
A: 210 µM

Q: And the TGI [58]?
A: > 5000 µM

Q: And the TGI [8]?
A: 1960 µM

Q: What about the TGI [9] of the same compound?
A: 378 µM

Q: What about the TGI [10] of the same compound?
A: 3770 µM

Q: And the TGI [11]?
A: 838 µM

Q: What about the TGI [12] of the same compound?
A: 63.7 µM

Q: And the TGI [13]?
A: 812 µM

Q: And the TGI [14]?
A: 478 µM

Q: And the TGI [15]?
A: 279 µM

Q: And the TGI [59]?
A: 1620 µM

Q: And the TGI [16]?
A: 3420 µM

Q: What about the TGI [17] of the same compound?
A: 1280 µM

Q: And the TGI [18]?
A: 2290 µM

Q: And the TGI [19]?
A: 2980 µM

Q: And the TGI [60]?
A: > 5000 µM

Q: And the TGI [20]?
A: 309 µM

Q: And the TGI [61]?
A: 882 µM

Q: And the TGI [21]?
A: > 3890 µM

Q: What about the TGI [22] of the same compound?
A: 2660 µM

Q: What about the TGI [23] of the same compound?
A: 1060 µM

Q: What about the TGI [62] of the same compound?
A: 670 µM

Q: What about the TGI [63] of the same compound?
A: 469 µM

Q: And the TGI [64]?
A: 923 µM

Q: What about the TGI [24] of the same compound?
A: 386 µM

Q: And the TGI [25]?
A: 2220 µM

Q: What about the TGI [26] of the same compound?
A: 386 µM

Q: And the TGI [27]?
A: 415 µM

Q: And the TGI [28]?
A: 1050 µM

Q: And the TGI [29]?
A: 105 µM

Q: And the TGI [30]?
A: 424 µM

Q: And the TGI [31]?
A: 520 µM

Q: And the TGI [32]?
A: 2830 µM

Q: And the TGI [33]?
A: 212 µM

Q: What about the TGI [34] of the same compound?
A: 802 µM

Q: What about the TGI [35] of the same compound?
A: 241 µM

Q: What about the TGI [65] of the same compound?
A: 794 µM

Q: And the TGI [66]?
A: 1830 µM

Q: And the TGI [36]?
A: 551 µM

Q: And the TGI [37]?
A: 3560 µM

Q: And the TGI [38]?
A: 848 µM

Q: And the TGI [39]?
A: 505 µM

Q: And the TGI [40]?
A: 843 µM

Q: What about the TGI [41] of the same compound?
A: > 5000 µM

Q: And the TGI [42]?
A: 4090 µM

Q: What about the TGI [43] of the same compound?
A: 460 µM

Q: And the TGI [44]?
A: 819 µM

Q: And the TGI [45]?
A: 663 µM

Q: And the TGI [67]?
A: > 4620 µM

Q: And the TGI [46]?
A: 840 µM

Q: What about the TGI [47] of the same compound?
A: 2820 µM

Q: And the TGI [68]?
A: > 232 µM

Q: What about the TGI [48] of the same compound?
A: 2050 µM

Q: What about the TGI [69] of the same compound?
A: > 2990 µM

Q: What about the TGI [70] of the same compound?
A: 2320 µM

Q: What about the TGI [49] of the same compound?
A: 4010 µM

Q: And the TGI [50]?
A: > 5000 µM

Q: And the TGI [51]?
A: 579 µM

Q: What about the TGI [52] of the same compound?
A: 1020 µM

Q: And the TGI [53]?
A: 247 µM
